Data reported in US20080096969A1, “N alpha-(Menthanecarbonyl)amino acid amides and use thereof as physiological cooling active ingredients” (SYMRISE GMBH & CO. KG, priority 2006, published 2008).

Legend:
[1] = Organoleptic test of cooling action in confectioner's fondant by a panel of experts; assay type: in vivo; settings: 0.05 wt. % relative to the overall preparation, scale from 1 (no cooling action) to 9 (extremely strong cooling action)
Procedure: The compounds were tested for their organoleptic properties, in particular their cooling action. To this end, they were dissolved, in each case in a specific final concentration, in a mass prepared from sucrose (saccharose) and water (confectioner's fondant, supplier Nordzucker A G, Nordstemmen) and evaluated by a panel of experts. Sensory impressions were rated and the cooling action was assessed on a scale from 1 (no cooling action) to 9 (extremely strong cooling action).

[2] = study of approx. 1200 compounds; cited from earlier work
[3] = forms the free acid N-(L-menthanecarbonyl)glycine; cited from earlier work

Row | SMILES | cooling action [1] | cooling action (literature) [2] | susceptibility to hydrolysis [3]
1 | CC(C)CNC(=O)CNC(=O)[C@@H]1C[C@H](C)CC[C@H]1C(C)C [Example 1, L-N^α-(menthanecarboxyl)glycine-N-isobutylamide] | 5 | – | –
2 | CC1CCC(C(C)C)C(C(=O)NCC(=O)O)C1 [N-(L-menthanecarbonyl)glycine] | – | very weak cooling action | –
3 | CCNC(=O)C1CC(C)CCC1C(C)C [WS3, L-menthane carboxylic acid N-ethylamide] | – | most strongly cooling active ingredients | –
4 | CCOC(=O)CNC(=O)C1CC(C)CCC1C(C)C [WS5, N^α-(L-menthanecarbonyl)glycine ethyl ester] | – | most strongly cooling active ingredients | susceptible to hydrolysis
